{
  "source": "patent US8648065B2",
  "about": "“Antibacterial medicinal composition of enhanced oral absorptivity” (Meiji Seika Pharma Co., Ltd., priority 2002, dated 2014)",
  "test": "Oral absorbability of cefditoren pivoxil suspensions in dogs",
  "assay_type": "in vivo",
  "conditions": "suspension of crystals as compared to an amorphous suspension",
  "text": "On the other hand, since amorphous cefditoren pivoxil is apt to change into a crystalline state in a solution, an antibiotic pharmaceutical composition comprising amorphous cefditoren pivoxil still needs to be improved.",
  "data": [
    {"compound": "CO/N=C(\\C(=O)N[C@@H]1C(=O)N2C(C(=O)OCOC(=O)C(C)(C)C)=C(/C=C\\c3scnc3C)CS[C@H]12)c1csc(N)n1", "note": "[cefditoren pivoxil, (−)-(6R,7R)-7-[(Z)-2-(2-aminothiazol-4-yl)-2-methoxyiminoacetamido]-3-[(Z)-2-(4-methylthiazol-5-yl)ethenyl]-8-oxo-5-thia-1-azabicyclo[4.2.0]oct-2-ene-2-carboxylic acid 2,2-dimethylpropionyloxymethyl ester]", "values": [
      {"measurement": "Oral absorbability in dogs (in words)", "value": "extremely low oral absorbability"}
    ]}
  ]
}
